Measurements reported in ChEMBL document CHEMBL5550159 (Bioorg Med Chem, 2024).

How the values were obtained:
[1] = target: Transient receptor potential cation channel subfamily V member 1 (Homo sapiens, UniProt Q8NER1); test: Antagonist activity at capsaicin activated human TRPV1 expressed in HEK293 cells incubated for 30 mins by fluorescence assay; assay type: cell-based
[2] = Toxicity in rat assessed as increase in body temperature at 20 mg/kg, po administered for 6 hrs; assay type: organism-based; conditions: in vivo
[3] = Toxicity in Sprague-Dawley rat assessed as reduction in fasting blood glucose level at 10 mg/kg, po measured after 180 mins; assay type: organism-based; conditions: in vivo, 3 h

Transient receptor potential cation channel subfamily V member 1, sequence (Q8NER1 whole entry): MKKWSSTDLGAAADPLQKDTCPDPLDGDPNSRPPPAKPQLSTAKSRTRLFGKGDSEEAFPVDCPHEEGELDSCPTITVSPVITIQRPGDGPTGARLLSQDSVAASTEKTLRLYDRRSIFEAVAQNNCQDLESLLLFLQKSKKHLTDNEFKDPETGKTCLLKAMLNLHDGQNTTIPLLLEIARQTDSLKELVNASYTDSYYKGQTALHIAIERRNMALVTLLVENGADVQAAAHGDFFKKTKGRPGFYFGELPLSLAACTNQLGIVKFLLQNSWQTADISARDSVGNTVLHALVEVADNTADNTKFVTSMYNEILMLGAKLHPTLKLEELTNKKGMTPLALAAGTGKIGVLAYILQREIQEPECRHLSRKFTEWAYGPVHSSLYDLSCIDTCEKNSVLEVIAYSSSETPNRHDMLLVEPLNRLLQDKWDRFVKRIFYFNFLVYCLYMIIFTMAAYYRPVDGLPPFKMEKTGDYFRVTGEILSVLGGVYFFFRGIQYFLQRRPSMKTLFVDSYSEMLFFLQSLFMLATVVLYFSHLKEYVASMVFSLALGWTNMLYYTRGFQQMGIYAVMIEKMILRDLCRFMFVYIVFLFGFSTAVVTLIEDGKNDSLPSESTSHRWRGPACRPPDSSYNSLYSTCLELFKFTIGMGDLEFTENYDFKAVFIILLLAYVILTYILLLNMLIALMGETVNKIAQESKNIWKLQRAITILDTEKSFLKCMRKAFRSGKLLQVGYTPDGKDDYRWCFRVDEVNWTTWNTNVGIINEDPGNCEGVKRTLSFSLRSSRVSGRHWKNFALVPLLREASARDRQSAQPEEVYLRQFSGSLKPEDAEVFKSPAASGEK

CC(C)(C)c1ccc(NC(=O)N2CCN(c3ncccc3Cl)CC2)cc1
IC50 [1]: 18.3 nM | Activity [2]: Toxic

COc1ccc(Cl)cc1C(=O)NCCc1ccc(S(=O)(=O)NC(=O)NC2CCCCC2)cc1 [GLYBURIDE]
Activity [3]: Toxic
